Patent US11999726B2, “5-methyl-4-fluoro-thiazol-2-yl compounds” (Eli Lilly and Company, priority 2018, dated 2024)
pIC50: −log10 of the molar value.

Target: T1, human O-GlcNAc-β-N-acetylglucosaminidase (OGA) (Homo sapiens, UniProt O60502)
T1 construct: poly-histidine (HIS) tag (N); made in house; host or cells: Sf9 insect cells (Bac-to-Bac baculovirus, pFastBac1)
T1 sequence (O60502 1-916): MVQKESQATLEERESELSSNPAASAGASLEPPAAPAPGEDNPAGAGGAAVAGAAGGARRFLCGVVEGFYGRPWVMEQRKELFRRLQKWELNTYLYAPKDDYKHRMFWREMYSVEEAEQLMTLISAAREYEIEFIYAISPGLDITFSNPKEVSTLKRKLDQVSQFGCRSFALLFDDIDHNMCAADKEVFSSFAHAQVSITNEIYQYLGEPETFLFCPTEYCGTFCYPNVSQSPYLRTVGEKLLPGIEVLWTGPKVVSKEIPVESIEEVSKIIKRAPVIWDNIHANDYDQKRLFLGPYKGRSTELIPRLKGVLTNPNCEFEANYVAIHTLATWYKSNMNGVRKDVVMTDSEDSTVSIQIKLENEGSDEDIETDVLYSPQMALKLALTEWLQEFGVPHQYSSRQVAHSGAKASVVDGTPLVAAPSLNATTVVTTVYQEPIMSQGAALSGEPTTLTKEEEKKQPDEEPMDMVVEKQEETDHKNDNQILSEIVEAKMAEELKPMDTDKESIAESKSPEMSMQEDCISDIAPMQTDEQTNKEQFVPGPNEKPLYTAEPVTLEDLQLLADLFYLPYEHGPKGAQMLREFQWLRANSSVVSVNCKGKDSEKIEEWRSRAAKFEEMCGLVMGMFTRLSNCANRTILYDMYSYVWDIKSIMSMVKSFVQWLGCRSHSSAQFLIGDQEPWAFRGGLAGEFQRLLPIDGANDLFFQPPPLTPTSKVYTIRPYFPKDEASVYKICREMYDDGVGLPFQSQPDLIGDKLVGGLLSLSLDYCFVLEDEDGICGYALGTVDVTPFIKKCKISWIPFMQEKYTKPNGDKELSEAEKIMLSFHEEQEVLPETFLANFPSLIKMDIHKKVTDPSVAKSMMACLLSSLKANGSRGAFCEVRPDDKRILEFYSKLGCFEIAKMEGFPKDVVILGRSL
Assay: In Vitro Human OGA Enzyme Assay
Type: biochemical
Settings: FD-GlcNAc substrate 6.7 μM; 30 min pre-incubation with OGA enzyme; 60 min at room temperature; pH 7; n=3
Procedure: In Vitro Human OGA Enzyme Assay
The nucleotide sequence encoding full-length human O-GlcNAc-β-N-acetylglucosaminidase (NM_012215) is inserted into pFastBac1 (Invitrogen) vector with an N-terminal poly-histidine (HIS) tag. Baculovirus generation is carried out according to the Bac-to-Bac Baculovirus Expression system (Invitrogen) protocol. Sf9 cells are infected at 1.5×10^6 cells/mL using 10 mL of P1 virus per Liter of culture and incubated at 28° C. for 48 hrs. Cells are spun down, rinsed with PBS and the pellets stored at −80° C. […]
Resin is then packed onto column and washed with 50 mM Tris, pH 8.0, 300 mM NaCl, 10% glycerol, 10 mM imidazole, 0.1% Triton™ X-100, 1 mM DTT, followed by 50 mM Tris, pH 8.0, 150 mM NaCl, 10 mM imidazole, 10% glycerol, 1 mM DTT. […] Fractions containing His-OGA are pooled and protein concentration measured with BCA ([…]).
The OGA enzyme catalyses the removal of O-GlcNAc from nucleocytoplasmic proteins. […] This fluorogenic substrate becomes fluorescent upon cleavage by OGA, so that the enzyme activity can be measured by the increase in fluorescence detected at 535 nm (excitation at 485 nm).
The assay buffer is prepared to give a final concentration of 50 mM […], 0.01% bovine serum albumin and 0.01% Triton™ X-100 in water, at pH 7. […] Then, without stopping the reaction, fluorescence is read. […]

## CC(=O)Nc1nc(F)c(CN2CC[C@H](Oc3cnc(C#N)cn3)C[C@@H]2C)s1 [Example 1, N-[5-[[(2S,4S)-4-(5-cyanopyrazin-2-yl)oxy-2-methyl-1-piperidyl]methyl]-4-fluoro-thiazol-2-yl]acetamide]
  pIC50: 9.46
